Assay results: the supplement of paper PMC10307832

Experiments:
Assay in all cases: relative viability (nuclei count vs DMSO), 5 days (fraction); higher = more cells survive
AT-7519 + Navitoclax = compound: O=C(NC1CCNCC1)c1n[nH]cc1NC(=O)c1c(Cl)cccc1Cl [AT-7519] + CC1(C)CCC(c2ccc(Cl)cc2)=C(CN2CCN(c3ccc(C(=O)NS(=O)(=O)c4ccc(N[C@H](CCN5CCOCC5)CSc5ccccc5)c(S(=O)(=O)C(F)(F)F)c4)cc3)CC2)C1 [Navitoclax] (partner 0.5 µM)
Summary of the method: (§1)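 The day after seeding in 1536-well plates, lung cancer cell lines were treated by pin tool with a single drug, or with a fixed anchor-drug dose together with five library-drug doses (not always all listed) in √10 steps. After 5 days, a combined fix-and-stain solution (final 0.05% Triton X-100, 1% formaldehyde, 1 ug/ml Hoechst) was added. Nuclei counted on 4× images gave relative viability as treated counts over vehicle counts, reported as the median of duplicate plates.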

[1] = compound: C1=CC2=C(C=C(C(=C2N=C1)O)N=NC3=CC4=C(C=C3)C=C(C=C4)S(=O)(=O)O)S(=O)(=O)O + COc1cc2c(Oc3ccc(NC(=O)C4(C(=O)Nc5ccc(F)cc5)CC4)cc3F)ccnc2cc1OCCCN1CCOCC1 [Foretinib] (partner 0.25 µM)
Summary of the method: as §1

[2] = compound: C1=CC2=C(C=C(C(=C2N=C1)O)N=NC3=CC4=C(C=C3)C=C(C=C4)S(=O)(=O)O)S(=O)(=O)O + O=C(CCCCCCC(=O)Nc1ccccc1)NO [Vorinostat] (partner 1 µM)
Summary of the method: as §1

AT-7519 + Trametinib = compound: O=C(NC1CCNCC1)c1n[nH]cc1NC(=O)c1c(Cl)cccc1Cl [AT-7519] + CC(=O)Nc1cccc(-n2c(=O)n(C3CC3)c(=O)c3c(Nc4ccc(I)cc4F)n(C)c(=O)c(C)c32)c1 [Trametinib] (partner 0.02 µM)
Summary of the method: as §1

Row | Cell Line | relative viability (AT-7519 + Navitoclax; first compound 0.01 µM) | relative viability (AT-7519 + Navitoclax; first compound 0.03162 µM) | relative viability (AT-7519 + Navitoclax; first compound 0.3162 µM) | relative viability (AT-7519 + Navitoclax; first compound 1 µM) | relative viability ([1]; first compound 0.08 µM) | relative viability ([1]; first compound 0.253 µM) | relative viability ([1]; first compound 0.8 µM) | relative viability ([1]; first compound 2.53 µM) | relative viability ([1]; first compound 8 µM) | relative viability ([2]; first compound 0.08 µM) | relative viability ([2]; first compound 0.253 µM) | relative viability ([2]; first compound 0.8 µM) | relative viability ([2]; first compound 2.53 µM) | relative viability ([2]; first compound 8 µM) | relative viability (AT-7519 + Trametinib; first compound 0.01 µM) | relative viability (AT-7519 + Trametinib; first compound 0.03162 µM) | relative viability (AT-7519 + Trametinib; first compound 0.3162 µM) | relative viability (AT-7519 + Trametinib; first compound 1 µM)
1 | Calu-6 | 1.09 | 0.89 | 0.901 | 0.115 | 0.887 | 0.846 | 0.92 | 0.886 | 0.912 |  |  |  |  |  |  |  |  | 
2 | ChaGo-K-1 | 0.971 | 1.39 | 0.726 | 0.982 | 0.953 | 0.986 | 0.855 | 1.02 | 0.927 | 0.827 | 0.812 | 0.698 | 0.723 | 0.494 | 0.949 | 0.884 | 0.936 | 0.795
3 | EBC-1 | 0.368 | 0.347 | 0.329 | 0.159 | 0.1 | 0.106 | 0.104 | 0.0986 | 0.0948 |  |  |  |  |  |  |  |  | 
4 | EKVX | 0.772 | 0.881 | 0.923 | 0.876 | 0.818 | 0.712 | 0.797 | 0.861 | 0.272 | 0.757 | 0.694 | 0.643 | 0.76 | 0.656 | 0.326 | 0.312 | 0.525 | 0.3
5 | EMC-BAC-2 | 0.89 | 1.02 | 1.05 | 1.18 | 1.07 | 0.987 | 1.04 | 1.07 | 0.842 | 0.377 | 0.458 | 0.467 | 0.441 | 0.45 | 0.92 | 0.835 | 0.845 | 0.376
6 | EPLC-272H | 1.13 | 1.01 | 1.31 | 0.972 | 0.779 | 0.752 | 0.704 | 0.646 | 0.723 | 0.453 | 0.358 | 0.306 | 0.876 | 0.491 | 0.309 | 0.312 | 0.275 | 0.22
7 | H3255 | 0.463 | 0.491 | 0.647 | 0.431 | 0.693 | 0.851 | 0.835 | 0.916 | 0.628 | 0.84 | 0.828 | 0.803 | 0.846 | 0.754 | 0.53 | 0.546 | 0.715 | 0.574
8 | HARA | 1.07 | 1.12 | 1.12 | 0.97 | 1.23 | 0.896 | 0.914 | 0.901 | 0.821 | 0.631 | 0.383 | 0.565 | 0.493 | 0.551 | 0.805 | 0.551 | 0.796 | 0.313
